≈ marks a conversion by molar mass, not a printed value.

Test [1] deals with Human immunodeficiency virus 1. As to the kind of experiment: Tested for the determination of percentage toxicity at 5 uM concentrations against HIV-1 in ATH8 Cells. The test is classed as functional.
Test [2] concerns Human immunodeficiency virus 1. In words: Tested for the determination of percentage toxicity at 20 uM concentrations against HIV-1 in ATH8 Cells. It is filed as functional.
Test [3] relates to Human immunodeficiency virus 1. In words: Tested for the determination of percentage protection at 1 uM concentrations against HIV-1 in ATH8 Cells. It is filed as functional.
Test [4] relates to Human immunodeficiency virus 1. As to the kind of experiment: Tested for the determination of percentage protection at 20 uM concentrations against HIV-1 in ATH8 Cells. The test is classed as functional.
For test [5], the system named is Human immunodeficiency virus 1. In words: Tested for the determination of percentage protection at 5 uM concentrations against HIV-1 in ATH8 Cells. It is filed as functional.
The subject of test [6] is Human immunodeficiency virus 1. In words: Tested for the determination of percentage toxicity at 1 uM concentrations against HIV-1 in ATH8 Cells. It is filed as functional.
The test system of test [7] is Human immunodeficiency virus 1. In words: Tested for the determination of percentage protection at 100 uM concentrations against HIV-1 in ATH8 Cells. The test is classed as functional.
The test system of test [8] is Human immunodeficiency virus 1. In words: Tested for the determination of percentage toxicity at 100 uM concentrations against HIV-1 in ATH8 Cells. The test is classed as functional.
Test [9] has as its system Human alphaherpesvirus 2. In words: In vitro antiviral activity against herpesvirus, HSV-2, MS strain by plaque reduction assay in human foreskin fibroblasts. The settings on record: read-out: ED50 (the source's name). It is filed as functional. A general note: In a plaque reduction assay, fewer plaques than in the control indicate reduced infectivity or spread.
Test [10] concerns Human alphaherpesvirus 1. In words: Number of survivors per number of HSV-1 infected mice treated with 50 mg/kg per day; 0/10. It is filed as functional.
Test [11] concerns Human alphaherpesvirus 2. As to the kind of experiment: In vitro antiviral activity against herpesvirus, HSV-2, JEN strain by plaque reduction assay in human foreskin fibroblasts. The settings on record: read-out: ED50 (the source's name). It is filed as functional.
The subject of test [12] is Human alphaherpesvirus 3. As to the kind of experiment: In vitro antiviral activity against herpesvirus, VZV, Ellen strain by plaque reduction assay in human foreskin fibroblasts. The settings on record: Human alphaherpesvirus 3, read-out: ID50.
Test [13] has as its system Human alphaherpesvirus 1. As to the kind of experiment: In vitro antiviral activity against herpesvirus, HSV-1, E-377 strain by plaque reduction assay in human foreskin fibroblasts. The settings on record: read-out: ID50 (the source's name). It is filed as functional.
Test [14] has as its system Human alphaherpesvirus 2. As to the kind of experiment: In vitro antiviral activity against herpesvirus, HSV-2, MS strain by plaque reduction assay in human foreskin fibroblasts. The test is classed as functional. The settings on record: read-out: ID50 (the source's name).
The next test relates to Raji. In words: Tested for the inhibition of diffuse early antigen production assayed by immunofluorescent monoclonal antibody. The test is classed as functional. The settings on record: Homo sapiens.
Test [15] concerns Human alphaherpesvirus 3. As to the kind of experiment: In vitro antiviral activity tested against herpesvirus, VZV, Ellen strain by plaque reduction assay in human foreskin fibroblasts. The settings on record: Human alphaherpesvirus 3, read-out: ED50.
In test [16] the test system is Human alphaherpesvirus 1. In words: Tested for mean day to death of nonsurvivors against HSV-1 infection in mice at 12.5 mg/kg per day. It is filed as functional.
The test system of test [17] is Human alphaherpesvirus 3. As to the kind of experiment: In vitro antiviral activity against herpesvirus, VZV, OKA strain by plaque reduction assay in human foreskin fibroblasts. The settings on record: Human alphaherpesvirus 3, read-out: ID50.
The test system of test [18] is Human alphaherpesvirus 2. In words: In vitro antiviral activity against herpesvirus,HSV-2,X-79 strain by plaque reduction assay in human foreskin fibroblasts. The test is classed as functional. The settings on record: read-out: ED50 (the source's name).
In test [19] the test system is Human alphaherpesvirus 2. In words: In vitro antiviral activity against herpesvirus,HSV-2,HEET strain by plaque reduction assay in human foreskin fibroblasts. It is filed as functional. The settings on record: read-out: ED50 (the source's name).
The subject of test [20] is Human alphaherpesvirus 1. As to the kind of experiment: In vitro antiviral activity against herpesvirus, HSV-1,E-377 strain by plaque reduction assay in human foreskin fibroblasts. It is filed as functional. The settings on record: read-out: ED50 (the source's name).
Test [21] has as its system Human alphaherpesvirus 1. In words: Number of survivors per number of HSV-1 infected mice treated with 12.5 mg/kg per day; 2/10. The test is classed as functional.
The nature of test [22]: In vitro antiviral activity against herpesvirus, HSV-HEET strain by plaque reduction assay in human foreskin fibroblasts. It is filed as functional, herpes simplex virus. The settings on record: Human alphaherpesvirus 1; read-out: ID50 (the source's name).
For test [23], the system named is Human alphaherpesvirus 1. As to the kind of experiment: Tested for mean day to death of nonsurvivors against HSV-1 infection in mice at 50 mg/kg per day. It is filed as functional.
In test [24] the test system is Human alphaherpesvirus 1. As to the kind of experiment: Number of survivors per number of HSV-1 infected mice treated with 200 mg/kg per day; 4/10. The test is classed as functional.
Test [25] has as its system Human alphaherpesvirus 2. In words: In vitro antiviral activity against herpesvirus, HSV-2, X-79 strain by plaque reduction assay in human foreskin fibroblasts. The test is classed as functional. The settings on record: read-out: ID50 (the source's name).
The test system of test [26] is Human alphaherpesvirus 3. In words: In vitro antiviral activity tested against herpesvirus, VZV, OKA strain by plaque reduction assay in human foreskin fibroblasts. The settings on record: Human alphaherpesvirus 3, read-out: ED50.
Test [27] can be described thus: In vitro antiviral activity against herpesvirus, HSV-JEN strain by plaque reduction assay in human foreskin fibroblasts. The settings on record: Human alphaherpesvirus 1; read-out: ID50 (the source's name). It is filed as functional, herpes simplex virus.
Test [28] has as its system Human alphaherpesvirus 1. As to the kind of experiment: Tested for mean day to death of nonsurvivors against HSV-1 infection in mice at 200 mg/kg per day. It is filed as functional.
The species named for another test is Homo sapiens. In words: The drug concentration was determined to reduce proliferation of human foreskin fibroblasts to 50% of untreated controls in proliferation assay. The settings on record: read-out: ID50 (the source's name). The test is classed as functional.

In the case of `Cc1cn([C@H]2C[C@H](N=[N+]=[N-])[C@@H](CO)O2)c(=O)[nH]c1=O` [ZIDOVUDINE], the Cytotoxicity in [1] amounted to 30%; in test [2], 54%; in [6] it was 3%; in test [8] it was 54%. Further, the Protection in [3] is reported as 65%; in [4] it was 65%; in test [5] it was 96%; in test [7], 47%.

As for `Nc1nc2c(ncn2COCCO)c(=O)[nH]1` [ACYCLOVIR], the EC50 in the test with Human alphaherpesvirus 2 [9] came out at 0.09 µg/mL (≈ 0.4 µM); in the test on Human alphaherpesvirus 2 [11], 0.07 µg/mL (≈ 0.311 µM); with Raji (read-out: ED50 (the source's name)), 3.8 µg/mL (≈ 16.9 µM); in the test on Human alphaherpesvirus 3 [15] it was 2.3 µg/mL (≈ 10.2 µM); with Human alphaherpesvirus 2 [18], 0.1 µg/mL (≈ 0.444 µM); with Human alphaherpesvirus 2 [19], 0.06 µg/mL (≈ 0.266 µM). Also, the EC50 with Human alphaherpesvirus 1 [20] stood at 0.08 µg/mL (≈ 0.355 µM); in the test with Human alphaherpesvirus 3 [26], 3.7 µg/mL (≈ 16.4 µM). Moreover, the Survivors / treated in the test with Human alphaherpesvirus 1 [10] is 0; in the test on Human alphaherpesvirus 1 [21], 2; with Human alphaherpesvirus 1 [24], 4. Moreover, the IC50 (with Human alphaherpesvirus 3 [12]; with Human alphaherpesvirus 1 [13]; in the test with Human alphaherpesvirus 2 [14]; in the test with Raji (read-out: ID50 (the source's name)); in the test with Human alphaherpesvirus 3 [17]; in test [22]) was more than 100 µg/mL throughout. Further, the IC50 with Human alphaherpesvirus 2 [25] is more than 100 µg/mL; in test [27], more than 100 µg/mL; in the test filed under Homo sapiens it was 165 µg/mL (≈ 733 µM). In addition, the MDD was 7.8 in the test with Human alphaherpesvirus 1 [16], 8 in the test on Human alphaherpesvirus 1 [23] and 12.3 in the test with Human alphaherpesvirus 1 [28].

For the origin of these results see ChEMBL document CHEMBL1124752, “Cyclobut-A and cyclobut-G: broad-spectrum antiviral agents with potential utility for the therapy of AIDS” (J Med Chem, 1990).
